Measurements taken from PMC9329436, “Optimization of the 4-anilinoquin(az)oline scaffold as epidermal growth factor receptor (EGFR) inhibitors for chordoma utilizing a toxicology profiling assay platform” (Scientific Reports, 2022).
Like-named read-outs stand apart in the source and are kept apart here.

How the values were obtained:
Format in all cases: biochemical
[1] = biological target: 320 wild-type protein kinases (Homo sapiens, UniProt Q05655); conditions: PKC-delta, singlicate
Source text: (§1) Table S4. Profiling of two compounds at two concentrations against 320 wild-type protein kinases; singlicate measurement; Residual activities (% of control).

[2] = biological target: T1, 320 wild-type protein kinases (Homo sapiens, UniProt Q96L34); conditions: singlicate
T1 sequence (Q96L34 1-752): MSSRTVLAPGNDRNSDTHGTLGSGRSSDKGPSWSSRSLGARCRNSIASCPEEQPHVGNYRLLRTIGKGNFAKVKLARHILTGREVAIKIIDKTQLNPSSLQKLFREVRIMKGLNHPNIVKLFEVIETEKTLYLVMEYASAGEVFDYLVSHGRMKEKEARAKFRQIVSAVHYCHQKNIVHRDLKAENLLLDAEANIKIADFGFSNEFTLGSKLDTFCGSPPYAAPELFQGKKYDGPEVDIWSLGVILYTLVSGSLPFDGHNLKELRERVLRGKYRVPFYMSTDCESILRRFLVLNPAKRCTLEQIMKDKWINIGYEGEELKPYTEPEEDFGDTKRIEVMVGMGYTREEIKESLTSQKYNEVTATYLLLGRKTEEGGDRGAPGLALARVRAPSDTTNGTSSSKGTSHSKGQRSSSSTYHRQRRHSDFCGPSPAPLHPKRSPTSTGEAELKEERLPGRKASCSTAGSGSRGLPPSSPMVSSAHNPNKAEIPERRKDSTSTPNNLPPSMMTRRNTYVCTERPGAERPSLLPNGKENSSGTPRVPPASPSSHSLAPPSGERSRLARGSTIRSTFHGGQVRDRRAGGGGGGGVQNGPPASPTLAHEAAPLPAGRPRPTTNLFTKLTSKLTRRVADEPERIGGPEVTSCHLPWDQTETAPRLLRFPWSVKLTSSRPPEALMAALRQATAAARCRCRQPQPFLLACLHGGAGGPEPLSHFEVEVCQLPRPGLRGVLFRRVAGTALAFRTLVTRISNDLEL
Source text: as §1

[3] = biological target: T2, 320 wild-type protein kinases (Homo sapiens, UniProt Q02156); conditions: PKC-epsilon, singlicate
T2 sequence (Q02156 1-737): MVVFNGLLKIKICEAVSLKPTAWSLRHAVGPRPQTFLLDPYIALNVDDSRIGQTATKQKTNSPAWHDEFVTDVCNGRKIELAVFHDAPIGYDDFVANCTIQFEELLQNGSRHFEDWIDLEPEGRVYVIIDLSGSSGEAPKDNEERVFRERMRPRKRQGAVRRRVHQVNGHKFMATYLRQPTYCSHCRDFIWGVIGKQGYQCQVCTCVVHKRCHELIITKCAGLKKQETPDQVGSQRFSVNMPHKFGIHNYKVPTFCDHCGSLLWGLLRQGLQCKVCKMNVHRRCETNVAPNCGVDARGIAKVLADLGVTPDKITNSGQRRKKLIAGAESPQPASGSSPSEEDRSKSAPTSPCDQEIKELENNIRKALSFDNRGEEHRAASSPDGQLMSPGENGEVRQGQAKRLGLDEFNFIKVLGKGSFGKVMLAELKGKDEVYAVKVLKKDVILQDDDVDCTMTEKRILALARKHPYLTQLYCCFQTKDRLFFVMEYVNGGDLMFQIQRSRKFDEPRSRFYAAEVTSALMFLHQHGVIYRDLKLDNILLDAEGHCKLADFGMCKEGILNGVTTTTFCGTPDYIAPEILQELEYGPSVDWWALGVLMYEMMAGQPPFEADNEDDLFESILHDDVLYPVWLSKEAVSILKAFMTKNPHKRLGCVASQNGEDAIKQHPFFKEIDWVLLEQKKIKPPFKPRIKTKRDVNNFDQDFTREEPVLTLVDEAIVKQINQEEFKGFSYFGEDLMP
Source text: as §1

[4] = biological target: 320 wild-type protein kinases (Homo sapiens, UniProt Q9HCP0); conditions: singlicate
Source text: as §1

[5] = biological target: T3, 320 wild-type protein kinases (Homo sapiens, UniProt O14733); conditions: singlicate
T3 sequence (O14733 1-419): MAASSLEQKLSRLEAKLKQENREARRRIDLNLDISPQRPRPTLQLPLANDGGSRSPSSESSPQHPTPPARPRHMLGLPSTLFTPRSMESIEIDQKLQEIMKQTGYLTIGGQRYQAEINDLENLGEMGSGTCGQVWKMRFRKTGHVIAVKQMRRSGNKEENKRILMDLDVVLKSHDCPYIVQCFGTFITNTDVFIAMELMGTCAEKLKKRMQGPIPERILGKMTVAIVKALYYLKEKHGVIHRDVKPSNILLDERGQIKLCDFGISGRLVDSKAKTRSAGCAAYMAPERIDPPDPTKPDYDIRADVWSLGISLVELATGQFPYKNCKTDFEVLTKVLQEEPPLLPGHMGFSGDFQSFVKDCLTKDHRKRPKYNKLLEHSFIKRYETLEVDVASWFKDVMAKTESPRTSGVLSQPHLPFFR
Source text: as §1

[6] = biological target: 320 wild-type protein kinases (Homo sapiens, UniProt P07948); conditions: LYN, singlicate
Source text: as §1

[7] = biological target: 320 wild-type protein kinases (Homo sapiens, UniProt P50750); conditions: singlicate
Source text: as §1

[8] = biological target: 320 wild-type protein kinases (Homo sapiens, UniProt Q02763); conditions: kinase TIE2, singlicate
Source text: as §1

[9] = biological target: 320 wild-type protein kinases (Homo sapiens, UniProt Q16288); conditions: kinase TRK-C, singlicate
Source text: as §1

Sequence of 320 wild-type protein kinases (Homo sapiens, UniProt Q05655) (Q05655 whole entry): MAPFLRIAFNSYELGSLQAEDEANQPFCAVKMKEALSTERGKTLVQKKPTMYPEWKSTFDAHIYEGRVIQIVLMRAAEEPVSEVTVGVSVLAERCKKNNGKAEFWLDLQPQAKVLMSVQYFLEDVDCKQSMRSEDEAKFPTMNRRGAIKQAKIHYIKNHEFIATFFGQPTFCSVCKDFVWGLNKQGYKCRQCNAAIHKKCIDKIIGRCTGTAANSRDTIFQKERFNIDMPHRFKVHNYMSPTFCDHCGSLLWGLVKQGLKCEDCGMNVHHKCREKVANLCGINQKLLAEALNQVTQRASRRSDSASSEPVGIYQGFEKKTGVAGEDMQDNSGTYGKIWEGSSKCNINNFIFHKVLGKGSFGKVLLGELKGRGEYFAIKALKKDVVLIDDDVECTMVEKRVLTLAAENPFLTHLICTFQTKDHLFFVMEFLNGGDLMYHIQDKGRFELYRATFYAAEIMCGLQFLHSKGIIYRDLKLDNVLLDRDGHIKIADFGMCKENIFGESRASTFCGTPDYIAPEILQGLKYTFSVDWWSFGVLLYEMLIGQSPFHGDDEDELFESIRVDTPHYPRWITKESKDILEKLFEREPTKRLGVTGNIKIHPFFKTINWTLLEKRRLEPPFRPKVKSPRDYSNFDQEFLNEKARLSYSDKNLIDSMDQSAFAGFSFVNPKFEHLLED
Sequence of 320 wild-type protein kinases (Homo sapiens, UniProt Q9HCP0) (Q9HCP0 whole entry): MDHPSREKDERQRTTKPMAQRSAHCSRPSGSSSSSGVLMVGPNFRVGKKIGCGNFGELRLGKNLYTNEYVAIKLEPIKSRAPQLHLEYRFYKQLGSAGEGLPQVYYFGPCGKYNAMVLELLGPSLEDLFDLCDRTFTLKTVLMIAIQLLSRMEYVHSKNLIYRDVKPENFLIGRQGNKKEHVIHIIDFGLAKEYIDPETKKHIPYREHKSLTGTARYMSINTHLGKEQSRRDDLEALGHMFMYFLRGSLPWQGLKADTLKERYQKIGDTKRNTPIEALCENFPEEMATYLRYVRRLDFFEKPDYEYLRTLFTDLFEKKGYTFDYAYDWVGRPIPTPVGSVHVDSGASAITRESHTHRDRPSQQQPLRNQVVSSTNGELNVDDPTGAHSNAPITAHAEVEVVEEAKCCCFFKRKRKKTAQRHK
Sequence of 320 wild-type protein kinases (Homo sapiens, UniProt Q02763) (Q02763 23-1124): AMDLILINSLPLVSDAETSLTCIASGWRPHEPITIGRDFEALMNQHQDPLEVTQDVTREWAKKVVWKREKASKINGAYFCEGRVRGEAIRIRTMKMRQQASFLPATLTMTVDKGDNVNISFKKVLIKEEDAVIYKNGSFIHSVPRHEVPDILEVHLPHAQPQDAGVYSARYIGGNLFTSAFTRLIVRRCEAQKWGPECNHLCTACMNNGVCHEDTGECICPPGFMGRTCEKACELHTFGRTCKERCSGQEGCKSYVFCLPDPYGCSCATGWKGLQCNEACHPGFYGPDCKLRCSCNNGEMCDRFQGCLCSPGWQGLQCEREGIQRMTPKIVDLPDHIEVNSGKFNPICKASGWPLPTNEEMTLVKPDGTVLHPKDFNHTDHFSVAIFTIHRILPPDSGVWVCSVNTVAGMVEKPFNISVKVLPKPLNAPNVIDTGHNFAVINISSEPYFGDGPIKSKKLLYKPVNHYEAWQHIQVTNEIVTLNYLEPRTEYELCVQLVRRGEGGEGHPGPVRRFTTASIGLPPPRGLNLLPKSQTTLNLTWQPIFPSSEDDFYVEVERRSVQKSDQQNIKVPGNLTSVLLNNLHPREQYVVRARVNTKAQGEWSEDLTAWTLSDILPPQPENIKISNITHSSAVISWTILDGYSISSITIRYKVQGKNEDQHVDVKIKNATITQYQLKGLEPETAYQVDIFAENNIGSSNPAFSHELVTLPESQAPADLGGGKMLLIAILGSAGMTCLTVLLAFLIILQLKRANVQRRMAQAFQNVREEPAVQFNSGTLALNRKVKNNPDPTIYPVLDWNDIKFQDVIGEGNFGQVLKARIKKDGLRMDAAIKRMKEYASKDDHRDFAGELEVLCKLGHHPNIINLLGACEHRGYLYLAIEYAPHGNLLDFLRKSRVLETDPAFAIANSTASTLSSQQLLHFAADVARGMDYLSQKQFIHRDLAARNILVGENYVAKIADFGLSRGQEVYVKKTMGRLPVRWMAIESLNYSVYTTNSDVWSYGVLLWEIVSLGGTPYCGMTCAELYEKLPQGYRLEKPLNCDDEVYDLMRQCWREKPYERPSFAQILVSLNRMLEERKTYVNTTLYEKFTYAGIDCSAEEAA
Sequence of 320 wild-type protein kinases (Homo sapiens, UniProt Q16288) (Q16288 32-839): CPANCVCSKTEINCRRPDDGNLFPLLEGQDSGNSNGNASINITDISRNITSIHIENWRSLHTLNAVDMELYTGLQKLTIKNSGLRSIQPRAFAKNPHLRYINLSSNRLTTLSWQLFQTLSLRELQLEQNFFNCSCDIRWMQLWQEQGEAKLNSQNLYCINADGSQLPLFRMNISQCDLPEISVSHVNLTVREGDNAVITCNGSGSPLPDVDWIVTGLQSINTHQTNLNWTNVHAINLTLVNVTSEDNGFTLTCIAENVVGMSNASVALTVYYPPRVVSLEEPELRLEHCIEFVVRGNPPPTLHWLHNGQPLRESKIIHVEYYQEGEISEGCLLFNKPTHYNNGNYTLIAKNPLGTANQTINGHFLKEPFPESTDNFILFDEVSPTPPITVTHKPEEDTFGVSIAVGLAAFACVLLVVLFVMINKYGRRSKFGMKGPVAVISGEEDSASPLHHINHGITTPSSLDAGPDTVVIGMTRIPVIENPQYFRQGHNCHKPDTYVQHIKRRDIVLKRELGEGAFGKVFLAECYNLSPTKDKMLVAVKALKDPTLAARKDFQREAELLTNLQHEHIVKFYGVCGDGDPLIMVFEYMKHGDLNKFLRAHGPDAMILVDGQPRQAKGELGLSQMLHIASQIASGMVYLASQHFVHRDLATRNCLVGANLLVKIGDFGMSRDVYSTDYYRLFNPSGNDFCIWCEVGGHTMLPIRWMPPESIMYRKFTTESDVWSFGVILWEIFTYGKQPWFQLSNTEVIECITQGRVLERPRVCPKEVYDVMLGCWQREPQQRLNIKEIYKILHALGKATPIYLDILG
Sequence of 320 wild-type protein kinases (Homo sapiens, UniProt P50750) (P50750 whole entry): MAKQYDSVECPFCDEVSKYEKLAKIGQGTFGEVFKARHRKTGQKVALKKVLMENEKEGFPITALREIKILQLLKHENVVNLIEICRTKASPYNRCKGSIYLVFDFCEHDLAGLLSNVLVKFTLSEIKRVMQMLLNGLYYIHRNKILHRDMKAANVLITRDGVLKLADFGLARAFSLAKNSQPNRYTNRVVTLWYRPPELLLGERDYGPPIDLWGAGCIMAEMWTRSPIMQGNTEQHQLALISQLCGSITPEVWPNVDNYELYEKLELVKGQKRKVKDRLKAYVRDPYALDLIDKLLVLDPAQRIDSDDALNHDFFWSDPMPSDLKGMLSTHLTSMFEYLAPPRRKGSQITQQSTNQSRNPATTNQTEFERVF
Sequence of 320 wild-type protein kinases (Homo sapiens, UniProt P07948) (P07948 whole entry): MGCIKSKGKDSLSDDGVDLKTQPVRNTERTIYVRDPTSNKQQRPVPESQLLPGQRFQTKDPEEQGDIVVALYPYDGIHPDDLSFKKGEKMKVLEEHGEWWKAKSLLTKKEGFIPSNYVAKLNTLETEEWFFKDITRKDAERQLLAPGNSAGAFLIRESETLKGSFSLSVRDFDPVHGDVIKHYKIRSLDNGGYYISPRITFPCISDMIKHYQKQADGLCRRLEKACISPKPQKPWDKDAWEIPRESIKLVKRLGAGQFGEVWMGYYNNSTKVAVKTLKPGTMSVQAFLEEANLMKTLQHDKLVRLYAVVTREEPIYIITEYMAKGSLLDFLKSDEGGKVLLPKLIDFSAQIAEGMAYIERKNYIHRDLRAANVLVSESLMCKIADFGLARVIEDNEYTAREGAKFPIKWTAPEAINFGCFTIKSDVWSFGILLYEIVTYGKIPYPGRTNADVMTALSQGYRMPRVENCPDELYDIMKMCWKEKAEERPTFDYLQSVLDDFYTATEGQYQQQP

Row | Structure (SMILES) | Residual activity ([1]; 1.0E-06 M) | Residual activity ([1]; 1.0E-07 M) | Residual activity ([2]; MARK4, 1.0E-06 M) | Residual activity ([2]; MARK4, 1.0E-07 M) | Residual activity ([3]; 1.0E-06 M) | Residual activity ([3]; 1.0E-07 M) | Residual activity ([4]; CK1-gamma1, 1.0E-06 M) | Residual activity ([4]; CK1-gamma1, 1.0E-07 M) | Residual activity ([5]; MKK7, 1.0E-06 M) | Residual activity ([5]; MKK7, 1.0E-07 M) | Residual activity ([6]; 1.0E-06 M) | Residual activity ([6]; 1.0E-07 M) | Residual activity ([7]; CDK9/CycK, 1.0E-06 M) | Residual activity ([7]; CDK9/CycK, 1.0E-07 M) | Residual activity ([7]; CDK9/CycT1, 1.0E-06 M) | Residual activity ([7]; CDK9/CycT1, 1.0E-07 M) | Residual activity, TIE2 ([8]; assay conc. 1.0E-06 M) | Residual activity, TIE2 ([8]; assay conc. 1.0E-07 M) | Residual activity, TRK-C ([9]; assay conc. 1.0E-06 M) | Residual activity, TRK-C ([9]; assay conc. 1.0E-07 M)
1 | C#Cc1cc(Nc2ncnc3cc(I)ccc23)ccc1Cl [Compound 41] | 88 % of control | 92 % of control | 114 % of control | 111 % of control | 89 % of control | 82 % of control | 123 % of control | 125 % of control | 120 % of control | 86 % of control | 89 % of control | 103 % of control | 80 % of control | 99 % of control | 92 % of control | 95 % of control | 87 % of control | 84 % of control | 105 % of control | 115 % of control
2 | C#Cc1cc(Nc2ncnc3cc(OC)c(OC)cc23)ccc1Cl [Compound 45] | 89 % of control | 115 % of control | 115 % of control | 110 % of control | 88 % of control | 89 % of control | 100 % of control | 112 % of control | 98 % of control | 112 % of control | 62 % of control | 94 % of control | 86 % of control | 103 % of control | 88 % of control | 90 % of control | 82 % of control | 111 % of control | 113 % of control | 136 % of control
